The record followed here is patent US12473305B2, “Pyrazole boronic acid compound, pharmaceutical composition containing same, and uses thereof” (BEIJING SONGRUN PHARMACEUTICAL TECHNOLOGY CO., LTD., priority 2020, dated 2025).

For test [1], the system named is non-small cell lung cancer cell line A549. Nature of the test: CellTiter-Glo tumor cell proliferation, A549. The test is classed as cell-based, human. Particulars: 72 h; for inhibition at 1 µM / inhibition at 10 µM: read-out: Inhibition rate A549 (%); for IC50: CellTiter-Glo. As for the experimental part: (§1) The effect of compounds on tumor cell proliferation was detected by CellTiter-Glo method. Human melanoma cell line A375, non-small cell lung cancer cell line A549, human lung adenocarcinoma cell line H1299, colorectal cancer cell line HCT116, liver cancer cell line HepG2 and gastric cancer cell line MGC80-3 were cultured in vitro. The cells were collected after growing to the logarithmic growth phase, centrifuged at 1000 rpm for 5 min, and suspended in an appropriate amount of medium after discarding the supernatant, and the cell concentration was adjusted to 2×10^4/mL. The cell suspension was inoculated onto the 384-well cell culture plate, with 50 μL per well. After being cultured in a cell incubator (37° C., 5% CO2) for 24 h, 5 μL of drug diluted by the cell culture medium was added into each well for the treatment group. Each drug was provided in triplicate. After 72 h incubation in the incubator, 20 μL of CellTiter-Glo was added into each well, and the relative luminescence unit (RLU) was measured with Multimode Microplate Reader Varioskan Flash (Thermo Scientific, USA) after placed at 37° C. for 20 min, and compared with the RLU of the control group. SigmaPlot 10.0 software was used to calculate the inhibition rate and IC50 value.

The subject of test [2] is Human melanoma cell line A375. Nature of the test: CellTiter-Glo tumor cell proliferation, A375. The format is cell-based. The note with it: 72 h; for inhibition at 1 µM / inhibition at 10 µM: read-out: Inhibition rate A375 (%); for IC50: CellTiter-Glo. As for the experimental part: as §1
The subject of test [3] is colorectal cancer cell line HCT116. Nature of the test: CellTiter-Glo tumor cell proliferation, HCT116. The test is classed as cell-based, human. Particulars: 72 h; for inhibition at 1 µM / inhibition at 10 µM: read-out: Inhibition rate HCT116 (%); for IC50: CellTiter-Glo. As for the experimental part:
as §1

Structures are written as SMILES.

`Cc1cccc(S(=O)(=O)Oc2ccccc2-c2cc(-c3ccccc3)n(CC(=O)N[C@@H](CC(C)C)B(O)O)n2)c1` [Compound 8, (R)-(3-methyl-1-(2-(5-phenyl-3-(2-((m-tolylsulfonyl)oxy)phenyl)-1H-pyrazol-1-yl)acetamido)butyl)boronic acid]: the inhibition (as a rule, the relative decrease from the control value, in per cent) at 1 µM in test [1] (Homo sapiens, A549) was determined as 2.9%; in test [2] (Homo sapiens, A-375) it was 1.8%; in test [3] (Homo sapiens, HCT-116), 2.1%. In addition, the inhibition at 10 µM amounted to 73.4% in test [1] (Homo sapiens, A549); 98.9% in test [2] (Homo sapiens, A-375); 98.5% in test [3] (Homo sapiens, HCT-116).
As to `CC(C)C[C@H](NC(=O)Cn1nc(-c2ccccc2OS(=O)(=O)c2cc(Cl)ccc2Cl)cc1-c1ccccc1)B(O)O` [Compound 7, (R)-(1-(2-(3-(2-(((2,5-dichlorophenyl)sulfonyl)oxy)phenyl)-5-phenyl-1H-pyrazol-1-yl)-acetamido)-3-methylbutyl)boronic acid], the inhibition at 1 µM in test [1] (Homo sapiens, A549) worked out at 16.5%; in test [2] (Homo sapiens, A-375) it was 3.7%; in test [3] (Homo sapiens, HCT-116), 3.5%. Moreover, the inhibition at 10 µM was 52% in test [1] (Homo sapiens, A549); 96% in test [2] (Homo sapiens, A-375); 96.6% in test [3] (Homo sapiens, HCT-116).
Consider `CC(C)C[C@H](NC(=O)Cn1nc(-c2ccccc2OS(=O)(=O)c2cccc(C(F)(F)F)c2)cc1-c1ccc(-c2ccccc2)cc1)B(O)O` [Compound 22, (R)-(1-(2-(5-([1,1′-biphenyl]-4-yl)-3-(2-(((3-(trifluoromethyl)phenyl)sulfonyl)oxy)phenyl)-1H-pyrazol-1-yl)acetamido)-3-methylbutyl)boronic acid], for which the inhibition at 1 µM in test [1] (Homo sapiens, A549) was determined as 3.7%; in test [2] (Homo sapiens, A-375), 10.9%; in test [3] (Homo sapiens, HCT-116) it was 3.9%. Also, the inhibition at 10 µM in test [1] (Homo sapiens, A549) stood at 16.1%; in test [2] (Homo sapiens, A-375), 39.1%; in test [3] (Homo sapiens, HCT-116) it was 18.1%.
As for `CC(C)C[C@H](NC(=O)Cn1nc(-c2cccc(O)c2)cc1-c1ccccc1)B(O)O` [Compound 27, (R)-(1-(2-(3-(3-hydroxyphenyl)-5-phenyl-1H-pyrazol-1-yl)acetamido)3-methylbutyl)boronic acid], the 50% inhibitory concentration (IC50) (commonly the concentration that gives 50% inhibition) in test [1] (Homo sapiens, A549) is 0.68 µM; in test [2] (Homo sapiens, A-375) it was 0.91 µM; in test [3] (Homo sapiens, HCT-116), 0.3 µM.
Turning to `Cc1cc(-c2cccc(NS(=O)(=O)c3cccc(C(F)(F)F)c3)c2)nn1CC(=O)N[C@@H](CC(C)C)B(O)O` [Compound 26], the 50% inhibitory concentration (IC50) in test [1] was determined as 3.07 µM; in test [2] it was 2.59 µM; in test [3] it was 1.41 µM.
For `CC(C)C[C@H](NC(=O)Cn1nc(-c2cccc(OS(=O)(=O)c3cccc(C(F)(F)F)c3)c2)cc1-c1ccccc1)B(O)O` [Compound 28], the IC50 was determined as 8.68 µM in test [1], 8.25 µM in test [2] and 3.41 µM in test [3].
For `CC(C)C[C@H](NC(=O)Cn1nc(-c2ccccc2OS(=O)(=O)c2cccs2)cc1-c1ccccc1)B(O)O` [Compound 9, (R)-(3-methyl-1-(2-(5-phenyl-3-(2-((thiophen-2-ylsulfonyl)oxy)phenyl)-1H-pyrazol-1-yl)acetamido)butyl)boronic acid], the inhibition at 1 µM in test [1] (Homo sapiens, A549) was 3.6%; in test [2] (Homo sapiens, A-375), 4.6%; in test [3] (Homo sapiens, HCT-116), 2.9%. Moreover, the inhibition at 10 µM in test [1] (Homo sapiens, A549) was 83.2%; in test [2] (Homo sapiens, A-375), 98.3%; in test [3] (Homo sapiens, HCT-116), 98.3%.
With `CC(C)C[C@H](NC(=O)Cn1nc(-c2ccccc2OS(=O)(=O)c2cccc(C(F)(F)F)c2)cc1-c1cccs1)B(O)O` [Compound 25, (R)-(3-methyl-1-(2-(5-(thiophen-2-yl)-3-(2-(((3-(trifluoromethyl)phenyl)sulfonyl)oxy)phenyl)-1H-pyrazol-1-yl)acetamido)butyl)boronic acid], the inhibition at 1 µM in test [1] (Homo sapiens, A549) turned out to be 6.2%; in test [2] (Homo sapiens, A-375), 10.3%; in test [3] (Homo sapiens, HCT-116), 5.3%. The inhibition at 10 µM in test [1] (Homo sapiens, A549) was 71.2%; in test [2] (Homo sapiens, A-375), 97.7%; in test [3] (Homo sapiens, HCT-116) it was 97.2%.
Consider `CC(C)C[C@H](NC(=O)Cn1nc(-c2ccccc2OS(=O)(=O)c2cccc(C(F)(F)F)c2)cc1-c1ccco1)B(O)O` [Compound 24, (R)-(1-(2-(5-(furan-2-yl)-3-(2-(((3-(trifluoromethyl)phenyl)sulfonyl)oxy)phenyl)-1H-pyrazol-1-yl)acetamido)-3-methylbutyl)boronic acid], for which the inhibition at 1 µM in test [1] (Homo sapiens, A549) was determined as 1.9%; in test [2] (Homo sapiens, A-375), 14.9%; in test [3] (Homo sapiens, HCT-116) it was 4.9%. In addition, the inhibition at 10 µM stood at 66.7% in test [1] (Homo sapiens, A549); 97% in test [2] (Homo sapiens, A-375); 97.1% in test [3] (Homo sapiens, HCT-116).
With `CC(C)C[C@H](NC(=O)Cn1nc(-c2ccccc2OS(=O)(=O)c2cccc(F)c2)cc1-c1ccccc1)B(O)O` [Compound 4, (R)-(1-(2-(3-(2-(((3-fluorophenyl)sulfonyl)oxy)phenyl)-5-phenyl-1H-pyrazol-1-yl)-acetamido)-3-methylbutyl)boronic acid], the inhibition at 1 µM in test [1] (Homo sapiens, A549) is 15%; in test [2] (Homo sapiens, A-375), 5.6%; in test [3] (Homo sapiens, HCT-116), 6.2%. In addition, the inhibition at 10 µM in test [1] (Homo sapiens, A549) came to 69.3%; in test [2] (Homo sapiens, A-375), 98.2%; in test [3] (Homo sapiens, HCT-116), 97.6%.
On to `Cc1ccc(-c2cc(-c3ccccc3OS(=O)(=O)c3cccc(C(F)(F)F)c3)nn2CC(=O)N[C@H](B(O)O)C(C)C)cc1` [Compound 20, (R)-(1-(2-(5-(4-methyl-phenyl)-3-(2-(((3-trifluoromethylphenyl)sulfonyl)oxy)phenyl)-1H-pyrazol-1-yl)acetamido)isobutyl)boronic acid], for which the inhibition at 1 µM in test [1] (Homo sapiens, A549) was found to be 1.2%; in test [2] (Homo sapiens, A-375), 11.5%; in test [3] (Homo sapiens, HCT-116) it was 9.2%. Also, the inhibition at 10 µM was determined as 4.2% in test [1] (Homo sapiens, A549); 61.9% in test [2] (Homo sapiens, A-375); 85.1% in test [3] (Homo sapiens, HCT-116).
With `CC(C)C[C@H](NC(=O)Cn1nc(-c2cccc(OS(=O)(=O)c3cccc(C(F)(F)F)c3)c2)cc1-c1ccccc1)B(O)O` [Compound 11, (R)-(3-methyl-1-(2-(5-phenyl-3-(3-(((3-(trifluoromethyl)phenyl)sulfonyl)oxy)phenyl)-1H-pyrazol-1-yl)acetamido)butyl)boronic acid], the inhibition at 1 µM in test [1] (Homo sapiens, A549) stood at 63.4%; in test [2] (Homo sapiens, A-375) it was 90.2%; in test [3] (Homo sapiens, HCT-116) it was 95.4%. The inhibition at 10 µM was found to be 90.3% in test [1] (Homo sapiens, A549); 98.8% in test [2] (Homo sapiens, A-375); 98.4% in test [3] (Homo sapiens, HCT-116). Moreover, the IC50 in test [1] (Homo sapiens, A549) is 1.06 µM; in test [2] (Homo sapiens, A-375) it was 2.6 µM; in test [3] (Homo sapiens, HCT-116), 0.7 µM.
As to `COc1ccc(-c2cc(-c3ccccc3OS(=O)(=O)c3cccc(C(F)(F)F)c3)nn2CC(=O)N[C@@H](CC(C)C)B(O)O)cc1` [Compound 21, (R)-(1-(2-(5-(4-methoxyphenyl)-3-(2-(((3-(trifluoromethyl)phenyl)sulfonyl)oxy)phenyl)-1H-pyrazol-1-yl)acetamido)-3-methylbutyl)boronic acid], the inhibition at 1 µM in test [1] (Homo sapiens, A549) was found to be 4.4%; in test [2] (Homo sapiens, A-375), 2%; in test [3] (Homo sapiens, HCT-116), 11.4%. Also, the inhibition at 10 µM came out at 6.4% in test [1] (Homo sapiens, A549); 44.1% in test [2] (Homo sapiens, A-375); 62.2% in test [3] (Homo sapiens, HCT-116).
